Data as given in PubChem BioAssay (NCI).
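Results reflect a 48-hour exposure of cells in 96-well plates to compound at five concentrations. The concentration for 50% growth inhibition is given as GI50. TGI: concentration producing complete growth inhibition.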

What was measured:
Assay in all cases: growth of human tumour cells (NCI), 48 h
SNB-75 CNS = test system: SNB-75 CNS
MOLT-4 leukemia = test system: MOLT-4 leukemia
HOP-62 NSCLC = test system: HOP-62 NSCLC
HCT-15 colon = test system: HCT-15 colon
SW-620 colon = test system: SW-620 colon
IGROV1 ovarian = test system: IGROV1 ovarian
HT29 colon = test system: HT29 colon
ACHN renal = test system: ACHN renal
SF-539 CNS = test system: SF-539 CNS
KM12 colon = test system: KM12 colon
HOP-92 NSCLC = test system: HOP-92 NSCLC
BT-549 breast = test system: BT-549 breast
K-562 leukemia = test system: K-562 leukemia
MDA-MB-231 breast = test system: MDA-MB-231 breast
SK-MEL-2 melanoma = test system: SK-MEL-2 melanoma
OVCAR-3 ovarian = test system: OVCAR-3 ovarian
HCC-2998 colon = test system: HCC-2998 colon
SK-MEL-28 melanoma = test system: SK-MEL-28 melanoma
NCI-H460 lung = test system: NCI-H460 lung
OVCAR-5 ovarian = test system: OVCAR-5 ovarian
SF-268 CNS = test system: SF-268 CNS
A498 renal = test system: A498 renal
OVCAR-4 ovarian = test system: OVCAR-4 ovarian
NCI-H226 lung = test system: NCI-H226 lung
LOX IMVI melanoma = test system: LOX IMVI melanoma
COLO 205 colon = test system: COLO 205 colon
U251 CNS = test system: U251 CNS
M14 melanoma = test system: M14 melanoma
CCRF-CEM leukemia = test system: CCRF-CEM leukemia
NCI-H522 lung = test system: NCI-H522 lung
CAKI-1 renal = test system: CAKI-1 renal
RPMI-8226 leukemia = test system: RPMI-8226 leukemia
UACC-62 melanoma = test system: UACC-62 melanoma
RXF 393 renal = test system: RXF 393 renal
PC-3 prostate = test system: PC-3 prostate
TK-10 renal = test system: TK-10 renal
SN12C renal = test system: SN12C renal
EKVX NSCLC = test system: EKVX NSCLC
HCT-116 colon = test system: HCT-116 colon
A549 NSCLC = test system: A549 NSCLC
MALME-3M melanoma = test system: MALME-3M melanoma
SNB-19 CNS = test system: SNB-19 CNS
OVCAR-8 ovarian = test system: OVCAR-8 ovarian
HL-60(TB) leukemia = test system: HL-60(TB) leukemia
UACC-257 melanoma = test system: UACC-257 melanoma
SF-295 CNS = test system: SF-295 CNS
HS 578T breast = test system: HS 578T breast
786-0 renal = test system: 786-0 renal
SR leukemia = test system: SR leukemia
MCF7 breast = test system: MCF7 breast
T-47D breast = test system: T-47D breast
UO-31 renal = test system: UO-31 renal
SK-MEL-5 melanoma = test system: SK-MEL-5 melanoma
DU-145 prostate = test system: DU-145 prostate
MDA-MB-435 = test system: MDA-MB-435
SK-OV-3 ovarian = test system: SK-OV-3 ovarian
NCI/ADR-RES ovarian = test system: NCI/ADR-RES ovarian
NCI-H23 lung = test system: NCI-H23 lung

CSc1ccc(/C=C2\C=C(CC(=O)NCc3ccc(C(=O)c4ccccc4)cc3)c3cc(F)ccc32)cc1
GI50 (SNB-75 CNS): 43.3 nM
TGI (SNB-75 CNS): 6250 nM
GI50 (MOLT-4 leukemia): 150 nM
TGI (MOLT-4 leukemia): > 36700 nM
GI50 (HOP-62 NSCLC): 63.3 nM
TGI (HOP-62 NSCLC): 3380 nM
GI50 (HCT-15 colon): 49.2 nM
TGI (HCT-15 colon): > 51300 nM
GI50 (SW-620 colon): 43.1 nM
TGI (SW-620 colon): > 100000 nM
GI50 (IGROV1 ovarian): 84.8 nM
TGI (IGROV1 ovarian): 17700 nM
GI50 (HT29 colon): 36.8 nM
TGI (HT29 colon): 2730 nM
GI50 (ACHN renal): 261 nM
TGI (ACHN renal): 12300 nM
GI50 (SF-539 CNS): 38.1 nM
TGI (SF-539 CNS): 1170 nM
GI50 (KM12 colon): 33.5 nM
TGI (KM12 colon): 1480 nM
GI50 (HOP-92 NSCLC): 179 nM
TGI (HOP-92 NSCLC): 6000 nM
GI50 (BT-549 breast): 1430 nM
TGI (BT-549 breast): 21900 nM
GI50 (K-562 leukemia): 39.3 nM
TGI (K-562 leukemia): > 100000 nM
GI50 (MDA-MB-231 breast): 64.3 nM
TGI (MDA-MB-231 breast): 5300 nM
GI50 (SK-MEL-2 melanoma): 49 nM
TGI (SK-MEL-2 melanoma): 7040 nM
GI50 (OVCAR-3 ovarian): 24.5 nM
TGI (OVCAR-3 ovarian): 64.3 nM
GI50 (HCC-2998 colon): 54.4 nM
TGI (HCC-2998 colon): 756 nM
GI50 (SK-MEL-28 melanoma): 68.8 nM
TGI (SK-MEL-28 melanoma): 19800 nM
GI50 (NCI-H460 lung): 37.7 nM
TGI (NCI-H460 lung): 4390 nM
GI50 (OVCAR-5 ovarian): 61.8 nM
TGI (OVCAR-5 ovarian): 24900 nM
GI50 (SF-268 CNS): 138 nM
TGI (SF-268 CNS): 15100 nM
GI50 (A498 renal): 36.4 nM
TGI (A498 renal): 902 nM
GI50 (OVCAR-4 ovarian): 127 nM
TGI (OVCAR-4 ovarian): 20200 nM
GI50 (NCI-H226 lung): 95.1 nM
TGI (NCI-H226 lung): 903 nM
GI50 (LOX IMVI melanoma): 69 nM
TGI (LOX IMVI melanoma): 6470 nM
GI50 (COLO 205 colon): 190 nM
TGI (COLO 205 colon): 431 nM
GI50 (U251 CNS): 37.9 nM
TGI (U251 CNS): 2330 nM
GI50 (M14 melanoma): 44.9 nM
TGI (M14 melanoma): 4160 nM
GI50 (CCRF-CEM leukemia): 33.7 nM
TGI (CCRF-CEM leukemia): 38900 nM
GI50 (NCI-H522 lung): 28.7 nM
TGI (NCI-H522 lung): 211 nM
GI50 (CAKI-1 renal): 74.1 nM
TGI (CAKI-1 renal): 8230 nM
GI50 (RPMI-8226 leukemia): 64.8 nM
TGI (RPMI-8226 leukemia): > 68300 nM
GI50 (UACC-62 melanoma): 59.1 nM
TGI (UACC-62 melanoma): 10700 nM
GI50 (RXF 393 renal): 30.7 nM
TGI (RXF 393 renal): 292 nM
GI50 (PC-3 prostate): 47.3 nM
TGI (PC-3 prostate): 13100 nM
GI50 (TK-10 renal): 329 nM
TGI (TK-10 renal): 6930 nM
GI50 (SN12C renal): 59 nM
TGI (SN12C renal): 23000 nM
GI50 (EKVX NSCLC): 423 nM
TGI (EKVX NSCLC): > 100000 nM
GI50 (HCT-116 colon): 36.7 nM
TGI (HCT-116 colon): 2760 nM
GI50 (A549 NSCLC): 137 nM
TGI (A549 NSCLC): 4800 nM
GI50 (MALME-3M melanoma): 215 nM
TGI (MALME-3M melanoma): 44700 nM
GI50 (SNB-19 CNS): 70.5 nM
TGI (SNB-19 CNS): > 100000 nM
GI50 (OVCAR-8 ovarian): 49.7 nM
TGI (OVCAR-8 ovarian): 8120 nM
GI50 (HL-60(TB) leukemia): 40.9 nM
TGI (HL-60(TB) leukemia): 208 nM
GI50 (UACC-257 melanoma): 572 nM
TGI (UACC-257 melanoma): > 100000 nM
GI50 (SF-295 CNS): 45.3 nM
TGI (SF-295 CNS): 6900 nM
GI50 (HS 578T breast): 45.7 nM
TGI (HS 578T breast): 13000 nM
GI50 (786-0 renal): 125 nM
TGI (786-0 renal): 2660 nM
GI50 (SR leukemia): 30.6 nM
TGI (SR leukemia): 26200 nM
TGI (MCF7 breast): 12200 nM
GI50 (T-47D breast): 1990 nM
TGI (T-47D breast): 44000 nM
GI50 (UO-31 renal): 360 nM
TGI (UO-31 renal): 13000 nM
GI50 (SK-MEL-5 melanoma): 35 nM
TGI (SK-MEL-5 melanoma): 365 nM
GI50 (DU-145 prostate): 40.1 nM
TGI (DU-145 prostate): 877 nM
GI50 (MDA-MB-435): < 11.2 nM
TGI (MDA-MB-435): 51.5 nM
GI50 (SK-OV-3 ovarian): 39.9 nM
TGI (SK-OV-3 ovarian): 704 nM
GI50 (NCI/ADR-RES ovarian): 32.8 nM
TGI (NCI/ADR-RES ovarian): 187 nM
GI50 (NCI-H23 lung): 36 nM
TGI (NCI-H23 lung): 2890 nM
